Measurements reported in US10159268B2, “Reduced sodium food products” (GENERAL MILLS, INC., priority 2013, dated 2018).

Legend:
[1] = Na-solution DAP test: trained panel rates saltiness of compounds in sodium solution; type: in vivo; set-up: key: DAP score; >3.1 indicates saltiness or salt enhancement; conditions: single compound in sodium solution; best DAP score of tested concentrations 0.1, 1 and 10 ppm; DAP score greater than 3.1 indicates saltiness or salt enhancement
Protocol: (§1) Briefly, each individual tested compound was placed in water and in sodium solution to test saltiness and saltiness enhancement potential. Tests in water were executed in a compound concentration of 10 ppm. Tests in sodium solution were executed in compound concentrations of 0.1, 1 and 10 ppm. Two control sodium solutions with known organoleptic salt intensities were provided as references for each test. The test for individual compounds was also conducted using simple broth instead of sodium solution. A number of compound combinations identified from the Na-solution DAP test were used for the broth DAP test. Tests were executed with a trained panel of 9-12 assessors. For Na-solution DAP tests, a DAP score of greater than 3.1 indicates saltiness or salt enhancement. The DAP score can be correlated with a sodium reduction potential by subtracting 3.1 from the DAP score. […] For broth DAP tests, a DAP score of greater than 7.6 indicates saltiness or salt enhancement. The DAP score can be correlated with a sodium reduction potential by subtracting 7.6 from the DAP score.

[2] = Broth DAP test: trained panel rates saltiness of compounds in simple broth; type: in vivo; set-up: key: DAP score; >7.6 indicates saltiness or salt enhancement in broth; conditions: single compound in simple broth; best DAP score of tested concentrations 0.1, 1 and 10 ppm; DAP score greater than 7.6 indicates saltiness or salt enhancement
Protocol: as §1

Compound	DAP in Na-Sol. [1]	DAP in Broth [2]
CCCCCCCCCCC[C@H](O)CC(=O)CCc1ccc(O)c(OC)c1 [Compound 1, 12-Gingerol]	3.6	7.8
CCCCCCCCC/C=C/C(=O)CCc1ccc(O)c(OC)c1 [Compound 2, [10]-Shogaol]	3.5	7.8
CCCCCC(CC(CCc1ccc(O)c(OC)c1)OC(C)=O)OC(C)=O (stereo not shown) [Compound 3, [6]-Gingerdiacetate]	4.1	8.8
CCCCC/C=C/C(=O)CCc1ccc(O)c(OC)c1 [Compound 4, 6-Shogaol]	3.5	
CCCCC[C@H](O)CC(=O)CCc1ccc(O)c(OC)c1 [Compound 5, [6]-Gingerol]	3.6	
CCCCCCCCC(=O)CCc1ccc(O)c(OC)c1 [Compound 6, [7]-Paradol]	3.8	
CCCCCCCC(=O)CCc1ccc(O)c(OC)c1 [Compound 7, [6]-Paradol or [6]-Gingerone]	3.7	
CCCCCC(CC(=O)CCc1ccc(O)c(OC)c1)OC (stereo not shown) [Compound 8, 5-methoxy-[6]-Gingerol]	4	
CCCCCCC[C@H](O)CC(=O)CCc1ccc(O)c(OC)c1 [Compound 9, 8-Gingerol]	3.8	
CCC=CC(=O)CCc1ccccc1 [Compound 11, a 1-Ph-4-hepten-3-one]	2.6	8.1
CCC(O)CC(=O)CCc1ccccc1 (stereo not shown) [Compound 12, a 1-Ph-5-OH-3-heptanone]	4	7.6
COc1cc(COC(=O)CCCC/C=C/C(C)C)ccc1O [Compound 13, Capsiate]	3.8	7.9
O=C(/C=C/CC/C=C/c1ccc2c(c1)OCO2)N1CCCCC1 [Compound 14, Pipersintenamide]	3.6	
CC(C)CNC(=O)/C=C/C=C/CCCCCC/C=C/c1ccc2c(c1)OCO2 [Compound 15, Guineensine]	3.5	8.1
CCCCC/C=C\CCCCCCc1cc(=O)c2ccccc2n1C [Compound 17, Evocarpine]	3.6	8.2
O=C(/C=C/C=C/c1ccc2c(c1)OCO2)N1CCCCC1 [Compound 18, Piperine]	3.8	8.1
CCC(O)CC(=O)CCc1ccccc1 (stereo not shown) [Compound 20, a 1-Ph-5-OH-3-heptanone]	4	
COc1cc(CNC(=O)CCCCCCC(C)C)ccc1O [Compound 21, Dihydrocapsaicin]	4	
COc1c(OC)c(OC)c2c(c1OC)c(=O)c1ccccc1n2C [Compound 23, Melicopicine]	2.9	8.3
COc1c(CC=C(C)C)c(=O)n(C)c2c(OC)cccc12 [Compound 25, O-Methylglycosolone]	3.9	
COc1ccc(-c2c(O)c3c(OC)c4c(cc3oc2=O)OC(C)(C)C=C4)cc1 [Compound 26, Robustic acid]	3.4	
COc1c2c(cc3oc(=O)ccc13)OC(C)(C)C=C2 [Compound 27, Xanthoxyletin]	3.4	
COc1cc2oc(=O)ccc2c(OC)c1CC=C(C)C [Compound 28, Toddaculin]	3.6	
C=CC(C)(O)CC[C@@]1(C)C2=C([C@H](OC(C)=O)[C@H](OC(C)=O)[C@H]1C)C(C)(C)CCC2 (stereo partly shown) [Compound 29, Vitetrifolin D]	3.5	8.0

Compound	DAP in Na-Sol. [1]	DAP in Broth [2]
CC(=O)OC1CC(C)C2(CCC3(COC(=O)C3)O2)C2(C)CCCC(C)(C)C12 (stereo not shown) [Compound 30]	3.1	
C[C@@H]1C[C@H]2OC(=O)[C@@]3(C)CCC[C@](C)(C23)[C@@]1(O)CCc1ccoc1 (stereo partly shown) [Compound 31, Marrubin]	3.2	
C=C[C@@]1(C)CC(=O)C2[C@]3(C)C(C[C@@H](O)[C@@]2(O)C1=O)C(C)(C)[C@H](OC(C)=O)[C@H](OC(C)=O)[C@@H]3OC(=O)c1ccccc1 (stereo partly shown) [Compound 32, Orthosiphol I]	3.5	8.1
C=C[C@@]1(C)CC(=O)C2[C@]3(C)C(C[C@@H](OC(C)=O)[C@@]2(O)C1=O)C(C)(C)[C@H](O)[C@H](OC(C)=O)[C@@H]3OC(=O)c1ccccc1 (stereo partly shown) [Compound 33, Orthosiphol M]	3.4	7.7
C/C=C(\C)C(=O)O[C@H]1[C@H](O)[C@]2(CO)[C@H](O)C[C@]3(C)C(=CCC4[C@@]5(C)CC[C@H](O[C@@H]6O[C@H](C(=O)O)C(O[C@@H]7O[C@H](CO)[C@@H](O)[C@H](O)[C@H]7O)[C@H](O)[C@H]6O[C@@H]6O[C@H](CO)[C@@H](O)[C@H](O)[C@H]6O)[C@](C)(CO)C5CC[C@]43C)[C@@H]2CC1(C)C (stereo partly shown) [Compound 34, Aesculioside A]	3.9	7.7
C=CC(C)(O)CC/C=C(\C)C(=O)OC1C(OCC2OC(OC(=O)C34CCC(C)(C)CC3C3=CCC5C6(C)CCC(OC7OC(COC8OCC(O)C(O)C8OC8OCC(O)C(O)C8O)C(O)C(O)C7O)C(C)(C)C6CCC5(C)C3(C)CC4O)C(OC3OC(C)C(OC4OCC(O)C(OC5OCC(O)C(O)C5O)C4O)C(O)C3O)C(OC(=O)/C(C)=C/CCC(C)(O)C=C)C2O)OC(C)C(O)C1O (stereo not shown) [Compound 35]	3.7	8.1
CC1CCC2(OC1)OC1CC3C4CCC5CC(OC6OC(CO)C(OC7OC(CO)C(O)C(OC8OC(CO)C(O)C(OC9OCC(O)C(O)C9O)C8O)C7O)C(OC7OCC(O)C(O)C7O)C6O)CCC5(C)C4CC(=O)C3(C)C1C2C (stereo not shown) [Compound 37]	3.7	8.1
CC(=O)OC1C(O)COC(OC2C(O)C(C)OC(OC(C)(CCC=C(C)C)C3C(O)CC4(C)C3CCC3C5(C)CCC(OC6OCC(O)C(O)C6O)C(C)(C)C5CCC34C)C2O)C1O (stereo not shown) [Compound 38]	3.9	8.1
O=C(O)/C=C/c1ccc(O)c2c1C(C(=O)OC(Cc1ccc(O)c(O)c1)C(=O)O)C(c1ccc(O)c(O)c1)O2 (stereo not shown) [Compound 40, a 3-benzofurancarboxylic ester]	3.5	7.8
C[C@@H]1C[C@@H]2O[C@@]3(O[C@@H]2C(C)(C)O)C(O)[C@@]2(C)C4CCC5C(C)(C)[C@@H](OC6OC[C@H](O)[C@@H](O)[C@@H]6O)CC[C@@]56C[C@@]46CC[C@]2(C)C13 (stereo partly drawn) [Compound 41, Cimigoside; b-D-Xylopyranoside]	3.9	7.5
CC1(C)CC[C@]2(C(=O)O)CC[C@]3(C)C(=CCC4[C@@]5(C)C[C@@H](O)[C@H](O)C(C)(C)C5CC[C@]43C)C2C1 (stereo partly shown) [Compound 42, Maslinic acid, Crategolic acid]	3.1	8.1
C[C@H]1[C@H](C)CC[C@]2(C(=O)O)CC[C@]3(C)C(=CC[C@@H]4[C@@]5(C)CC[C@H](O)C(C)(C)[C@@H]5CC[C@]43C)[C@H]12 [Compound 43, Ursolic acid]	3.7	8.0
COc1cc2c(c(OC)c1OC)-c1c(cc3c(c1OC)OCO3)C[C@H](C)[C@@](C)(O)C2 [Compound 44, Schizandrol B; Gomisin A]	3.8	8.6
COc1cc(O)c(C(/C=C/CC(O)CCc2ccc(O)cc2)c2ccc(O)cc2)c2c1C(=O)CC(c1ccc(O)cc1)O2 (stereo not shown) [Compound 50, Epicalyxin C]	4	
C/C(=C\CC/C(C)=C/CC[C@@H]1[C@@]2(C)CCC(=O)C(C)(C)C2CC[C@@]1(C)O)CC/C=C(\C)C(=O)O (stereo partly shown) [Compound 52, Myrrhanone B]	3.6	
O=c1c2ccccc2nc2n1CCc1c-2[nH]c2ccccc12 [Compound 57, Rutaecarpine]	3.1	
COc1c(CC=C(C)C)c(=O)[nH]c2ccccc12 [Compound 61, Atanine]	3.6	
C/C=C1\C(=O)CC2C3CCC4=CC(=O)CC[C@]4(C)C3CCC12C (stereo partly shown) [Compound 75, (Z)-Guggulsterone]	3.6	
C=C1C(=O)OC2CC3(C)CCCC(C)C3=CC12 (stereo not shown) [Compound 80a, Alantolactone]	3.9	
C=C1C(=O)O[C@@H]2C[C@@]3(C)CCCC(=C)[C@@H]3C[C@H]12 [Compound 80b, Isoalantolactone]	3.9	
CCC=CCC=CC=CC(O)CCCCCCCC(=O)O (stereo not shown) [Compound 85, 9-hydroxy-10,12,15-Octadecatrienoic acid]	2.9	
C=CC(C)(CC/C=C(\C)CC/C=C(\C)CC/C=C(/C)COC1OC(C)C(O)C(OC2OC(COC3OC(C)C(O)C(O)C3OC(=O)/C(C)=C/CC/C(C)=C/CC/C(C)=C/CCC(C)(C=C)OC3OC(CO)C(O)C(O)C3OC3OC(CO)C(O)C(O)C3O)C(O)C(O)C2O)C1O)OC1OC(CO)C(O)C(O)C1OC1OC(CO)C(O)C(O)C1O (stereo not shown) [Compound 91, Capsianoside E]	3.7	
C=CC(C)(CC/C=C(\C)CC/C=C(\C)CC/C=C(/C)COC1OC(C)C(O)C(OC2OC(COC3OC(C)C(O)C(O)C3OC(=O)/C(C)=C/C(O)C/C(C)=C/CC/C(C)=C/CCC(C)(C=C)OC3OC(CO)C(O)C(O)C3OC3OC(CO)C(O)C(O)C3O)C(O)C(O)C2O)C1O)OC1OC(CO)C(O)C(O)C1OC1OC(CO)C(O)C(O)C1O (stereo not shown) [Compound 92, Capsianoside D]	4	
C=C1C2CCC3C4(C)CCCC(C)(C(=O)O)C4CCC3(C2)C1OC(C)=O (stereo not shown) [Compound 94, Xylopic acid]	4.2	
